Test results taken from paper PMC10447463, “Data-mining unveils structure–property–activity correlation of viral infectivity enhancing self-assembling peptides” (Nature Communications, 2023).
Read-outs that look alike come from different tables or passages of the source.

Columns and labels:
[1] = Turbidity, derived count rate of scattered light; format: physicochemical; conditions: for Count Rate: derived count rate of scattered light (turbidity); for Log10 Count Rate: turbidity, derived count rate of scattered light, data of Figure 2D
[2] = Zeta-potential measurement; format: physicochemical
How it was run: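 PBS pH 7.4, 1 mg/mL peptide (DMSO stock), 1 d RT aggregation; diluted in 1 mM KCl pre-read; mobility → zeta (Smoluchowski); n = 3, 2 expts averaged.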

[3] = system: HIV-1 infection of TZM-bl cells; assay: HIV-1 infectivity enhancement assay, β-galactosidase luminescence; format: cell-based; conditions: for Rel-EFC / Log10 Infection Rel EFC: 1.3 µM peptide; for Rel-EFC: infection relative to EF-C (QCKIKQIINMWQ = 1); for Log10 Infection Rel EFC: log10 of infection relative to EF-C; for Log Infectivity: Log10 infection relative to EF-C, TZM-bl cells, asymmetric std dev errors; for Log10 Infection Rel EF-C: HIV-1 infection of TZM-bl cells; for Log10 of Rel to EFC (Feb2021): Log10 of infection relative to EF-C, all peptides of FigS16; for Log10 Inf. rel. to EF-C: log10 of HIV-1 infection of TZM-bl cells relative to EF-C (EF-C = 0); for Abs. Inf.: absolute infection signal, HIV-1 on TZM-bl cells, β-galactosidase luminescence
[4] = format: physicochemical; design: key to Fibril / Fibril Formation / TEM 2cat / Fibril: 1 = fibrils present; 0 non-fibrillar structures; conditions: for Fibril / Fibril Formation: 1 mg/mL, uranyl acetate stain, qualitative
[5] = zeta potential of peptide assemblies
[6] = zeta-potential of peptide, source data of Figure 2C
[7] = zeta-potential of the peptide assemblies, mean, Figure 3A source data
[8] = Fig. S7 panel A (plotted against β-sheet content)
[9] = Log10 of infection rate relative to EF-C, Figure 3A source data
[10] = infection rate relative to EF-C, log10, data of Figure 2D
[11] = infection rate relative to EF-C, log10, source data of Figure 2C
[12] = TEM, 1 = fibrils present, 0 = non-fibrillar
[13] = TEM, 1 = fibrils present, 0 = non-fibrillar structures
[14] = category: fibrils present or non-fibrillar
[15] = Fig. S7 panel B (plotted against CR), rounded to two decimals
[16] = FigS12 panel A, fibril category by TEM

| Substance | Count Rate [1] | Log10 Count Rate [1] | Zeta-Potential / mV [2, 6] [mV] | Zeta-Potential / mV [2, 7] [mV] | Rel-EFC [3] | Log10 Infection Rel EFC [3] | Log Infectivity [3, 8] | Log10 Infection Rel EF-C [3, 9] | Log10 Infection Rel EF-C [3, 10] | Log10 Infection Rel EF-C [3, 11] | Log10 of Rel to EFC (Feb2021) [3] | Log10 Inf. rel. to EF-C [3] | TEM 2cat ([4]; Fig S10 panel D) | Fibril / Fibril Formation ([4]; TEM) | Fibril [4, 12] | Fibril [4, 13] | TEM 2cat [4, 16] | Fibril ([4]; FigS12 panel B, TEM) | Zeta-Pot. [2] | Abs. Inf. [3] | further results |
| --- | --- | --- | --- | --- | --- | --- | --- | --- | --- | --- | --- | --- | --- | --- | --- | --- | --- | --- | --- | --- | --- |
| KIKIQINAWQ | 1494 | 3.174 | 13.72 | 13.1 | 0,54 | -0,27 | -0.2703 | -0.27 | -0.2703 | -0.2703 | -0.27 | -0.2703 | 1 | 1 | 1 | 1 | – | – | – | – | Zeta-Pot. [2, 5]: 13.1; TEM 2cat [4, 14]: 1 |
| KFKFQF | 183.4 | 2.263 | -8.745 | -11.03 | 0,06 | -1,21 | -1.213 | -1.21 | -1.213 | -1.213 | – | -1.213 | 0 | 0 | 0 | 0 | 0 | 0 | – | – | Zeta-Pot. [2, 5]: -11.03; Log Infectivity [3, 15]: -1.21; Fibril ([4]; Fig S10 panel E): 0 |
| KIKIQINM | 262.1 | 2.418 | 10.17 | 8.51 | 0,36 | -0,44 | -0.4404 | -0.44 | -0.4404 | -0.4404 | -0.44 | -0.4404 | 1 | 1 | 1 | 1 | – | – | – | – | Zeta-Pot. [2, 5]: 8.51; Log Infectivity [3, 15]: -0.44; Fibril ([4]; Fig S10 panel E): 1; TEM 2cat [4, 14]: 1 |
| SISISRRI | 25.27 | 1.403 | -9.316 | -17 | 0,03 | -1,55 | -1.548 | -1.55 | -1.548 | -1.548 | – | -1.548 | 0 | 0 | 0 | 0 | 0 | 0 | -17 | 313.3 | Log Infectivity [3, 15]: -1.55; Fibril ([4]; Fig S10 panel E): 0 |
| KAKQAANMWQ | 690.5 | 2.839 | -8.433 | -12.9 | 0,03 | -1,51 | -1.514 | -1.51 | -1.514 | -1.514 | – | -1.514 | 0 | 0 | 0 | 0 | 0 | 0 | -12.9 | 343.3 | – |
| QCKFKFQFNM | 3669.6 | 3.565 | 16.1 | 15.7 | 0,51 | -0,29 | -0.2906 | -0.29 | -0.2906 | -0.2906 | -0.29 | -0.2906 | 1 | 1 | 1 | 1 | – | – | 15.7 | 16353.33333 | Log Infectivity [3, 15]: -0.29; Fibril ([4]; Fig S10 panel E): 1; TEM 2cat [4, 14]: 1 |
| KIKIQINMW | 239.6 | 2.38 | 17.12 | 19.7 | 2,16 | 0,33 | 0.3339 | 0.33 | 0.3339 | 0.3339 | 0.33 | 0.3339 | 1 | 1 | 1 | 1 | – | – | – | – | Zeta-Pot. [2, 5]: 19.7; TEM 2cat [4, 14]: 1 |
| KKFQKKFQ | 73.6 | 1.867 | -6.175 | -9.19 | 0,03 | -1,54 | -1.545 | -1.54 | -1.545 | -1.545 | – | -1.545 | 0 | 0 | 0 | 0 | 0 | 0 | -9.19 | 423.3 | – |
| KVKVKVQV | 94.37 | 1.975 | -0.6533 | -3.41 | 0,02 | -1,76 | -1.763 | -1.76 | -1.763 | -1.763 | – | -1.763 | 0 | 0 | 0 | 0 | 0 | 0 | -3.41 | 466.7 | – |
| HGDKCHGDKC | 12.43 | 1.095 | -8.035 | -11.63 | 0,01 | -1,99 | -1.991 | -1.99 | -1.991 | -1.991 | – | -1.991 | 0 | 0 | 0 | 0 | 0 | 0 | -11.63 | 263.3 | Log Infectivity [3, 15]: -1.99; Fibril ([4]; Fig S10 panel E): 0 |
| NMWQKFKFQF | 14045.43333 | 4.148 | 10.63 | 9.56 | 0,27 | -0,57 | -0.5672 | -0.57 | -0.5672 | -0.5672 | -0.57 | -0.5672 | 1 | 1 | 1 | 1 | – | – | 9.56 | 7323 | TEM 2cat [4, 14]: 1 |
| KNDKND | 52.4 | 1.719 | -11.85 | -15 | 0,01 | -1,98 | -1.978 | -1.98 | -1.978 | -1.978 | – | -1.978 | 0 | 0 | 0 | 0 | 0 | 0 | -15 | 230 | – |
| QCKIKIQI | 12426.83333 | 4.094 | 10.99 | 9.52 | 0,11 | -0,95 | -0.9508 | -0.95 | -0.9508 | -0.9508 | -0.95 | -0.9508 | 1 | 1 | 1 | 1 | – | – | 9.52 | 3577 | TEM 2cat [4, 14]: 1 |
